Columns and labels:
CDK4/cyclin D1 = CDK4/cyclin D1 (Homo sapiens, UniProt P11802); test: Kinase assay CDK4/cyclin D1; assay type: biochemical; settings: Table 2; read-out: Kinase Inhibition IC50 CDK4 cyclin D1
Method: (§1) Kinase assays. […] This was achieved by measurement of incorporation of radioactive phosphate from ATP into appropriate polypeptide substrates. Recombinant protein kinases and kinase complexes were produced or obtained commercially. Assays were performed using 96-well plates and appropriate assay buffers (typically 25 mM β-glycerophosphate, 20 mM MOPS, 5 mM EGTA, 1 mM DTT, 1 mM […], pH 7.4), into which were added 2-4 μg of active enzyme with appropriate substrates. The reactions were initiated by addition of Mg/ATP mix (15 mM MgCl2+100 μM ATP with 30-50 kBq per well of [γ-^32P]-ATP) and mixtures incubated as required at 30° C. Reactions were stopped on ice, followed by filtration through p81 filterplates or GF/C filterplates (Whatman Polyfiltronics, Kent, UK). After washing 3 times with 75 mM aq orthophosphoric acid, plates were dried, scintillant added and incorporated radioactivity measured in a scintillation counter (TopCount, Packard Instruments, Pangbourne, Berks, UK). Compounds for kinase assay were made-up as 10 mM stocks in DMSO and diluted into 10% DMSO inrassay buffer.

CDK7/cyclin H = CDK7/cyclin H (Homo sapiens, UniProt P50613); test: CDK7 assay; assay type: biochemical; settings: Table 2; read-out: Kinase Inhibition IC50 CDK7 cyclin H
Method: as §1
(§2) CDK 7 and 9 assays. CTD peptide substrate (biotinyl-Ahx-(Tyr-Ser-Pro-Thr-Ser-Pro-Ser)4-NH2; 1-2 mg/mL) and recombinant human CDK7/cyclin H, CDK9/cyclin T1, or CDK9/cyclin K (0.5-2 μg) were incubated for 45 min at 30° C. in the presence of varying amounts of test compound in 20 mM MOPS pH 7.2, 25 mM β-glycerophosphate, 5 mM EGTA, 1 mM DTT, 1 mM sodium vanadate, 15 mM MgCl2, and 100 μM ATP (containing a trace amount of ^32PγATP) in a total volume of 25 μL in a 96-well microtiter plate. The reaction was stopped by placing the plate on ice for 2 min. Avidin (50 μg) was added to each well, and the plate was incubated at room temp for 30 min. The samples were transferred to a 96-well P81 filter plate, and washed (4×200 μL per well) with 75 mM phosphoric acid. Microscint 40 scintillation liquid (50 μL) was added to each well, and the amount of ^32P incorporation for each sample was measured using a Packard Topcount microplate scintillation counter.

Saos-2 = test: 72-h MTT cytotoxicity assay Saos-2; assay type: cell-based; settings: Homo sapiens, SAOS-2, 72 h, Table 4
Method: (§3) MTT cytotoxicity assay. […] Standard 72-h MTT (thiazolyl blue; 3-[4,5-dimethylthiazol-2-yl]-2,5-diphenyltetrazolium bromide) assays were performed (Haselsberger, K.; Peterson, D. C.; Thomas, D. G.; Darling, J. L. Anti Cancer Drugs 1996, 7, 331-8; Loveland, B. E.; Johns, T. G.; Mackay, I. R.; Vaillant, F.; Wang, Z. X.; Hertzog, P. J. Biochemistry International 1992, 27, 501-10). In short: cells were seeded into 96-well plates according to doubling time and incubated overnight at 37° C. Test compounds were made up in DMSO and a 1/3 dilution series prepared in 100 μL cell media, added to cells (in triplicates) and incubated for 72 ho at 37° C. MTT was made up as a stock of 5 mg/mL in cell media and filter-sterilised. Media was removed from cells followed by a wash with 200 μL PBS.
(§4) MTT solution was then added at 20 μL per well and incubated in the dark at 37° C. for 4 h. MTT solution was removed and cells again washed with 200 μL PBS. MTT dye was solubilised with 200 μL per well of DMSO with agitation.

CDK2/cyclin A = CDK2/cyclin A (Homo sapiens, UniProt P24941); test: Kinase assay CDK2/cyclin A; assay type: biochemical; settings: Table 2; read-out: Kinase Inhibition IC50 CDK2 cyclin A
Method: as §1

HT29 = test: 72-h MTT cytotoxicity assay HT29; assay type: cell-based; settings: Homo sapiens, HT-29, 72 h, Table 4
Method: as §3, §4

CDK2/cyclin E = CDK2/cyclin E (Homo sapiens, UniProt P24941); test: Kinase assay CDK2/cyclin E; assay type: biochemical; settings: Table 2; read-out: Kinase Inhibition IC50 CDK2 cyclin E
Method: as §1

CDK1/cyclin B = CDK1/cyclin B (Homo sapiens, UniProt P06493); test: Kinase assay CDK1/cyclin B; assay type: biochemical; settings: Table 2; read-out: Kinase Inhibition IC50 CDK1 cyclin B
Method: as §1

A549 = test: 72-h MTT cytotoxicity assay A549; assay type: cell-based; settings: Homo sapiens, A549, 72 h, Table 4
Method: as §3, §4

CDK9/cyclin T1 = CDK9/cyclin T1 (Homo sapiens, UniProt P50750); test: CDK9 assay; assay type: biochemical; settings: Table 2; read-out: Kinase Inhibition IC50 CDK9 cyclin T1
Method: as §1, §2

Sequence of CDK7/cyclin H (P50613 whole entry): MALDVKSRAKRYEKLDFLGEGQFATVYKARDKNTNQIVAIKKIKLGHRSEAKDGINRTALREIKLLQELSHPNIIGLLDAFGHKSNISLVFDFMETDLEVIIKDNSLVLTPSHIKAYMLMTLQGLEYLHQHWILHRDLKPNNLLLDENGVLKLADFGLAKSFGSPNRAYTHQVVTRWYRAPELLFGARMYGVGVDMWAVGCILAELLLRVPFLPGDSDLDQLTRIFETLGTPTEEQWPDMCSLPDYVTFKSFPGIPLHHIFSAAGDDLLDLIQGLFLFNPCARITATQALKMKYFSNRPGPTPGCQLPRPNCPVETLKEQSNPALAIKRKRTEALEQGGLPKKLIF
Sequence of CDK1/cyclin B (P06493 whole entry): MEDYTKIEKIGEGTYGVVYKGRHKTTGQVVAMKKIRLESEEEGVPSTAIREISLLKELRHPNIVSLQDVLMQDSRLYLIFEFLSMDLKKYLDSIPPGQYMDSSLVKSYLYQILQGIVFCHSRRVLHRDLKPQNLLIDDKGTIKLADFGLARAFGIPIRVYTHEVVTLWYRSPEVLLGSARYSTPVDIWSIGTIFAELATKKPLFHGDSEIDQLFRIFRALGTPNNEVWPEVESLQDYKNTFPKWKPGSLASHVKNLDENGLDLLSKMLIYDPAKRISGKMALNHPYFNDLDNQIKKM
Sequence of CDK1/cyclin B (P14635 whole entry partner): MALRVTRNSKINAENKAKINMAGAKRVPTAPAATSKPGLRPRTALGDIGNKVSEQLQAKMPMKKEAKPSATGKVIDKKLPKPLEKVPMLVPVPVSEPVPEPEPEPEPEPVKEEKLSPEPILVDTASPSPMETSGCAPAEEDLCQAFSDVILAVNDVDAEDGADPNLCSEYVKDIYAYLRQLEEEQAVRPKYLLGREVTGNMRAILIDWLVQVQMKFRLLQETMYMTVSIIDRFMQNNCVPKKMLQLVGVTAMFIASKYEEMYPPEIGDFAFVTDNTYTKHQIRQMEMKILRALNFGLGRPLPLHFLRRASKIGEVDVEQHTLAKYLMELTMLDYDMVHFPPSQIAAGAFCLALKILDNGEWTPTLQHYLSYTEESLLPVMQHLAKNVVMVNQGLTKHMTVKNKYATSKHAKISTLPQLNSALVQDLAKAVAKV
Sequence of CDK4/cyclin D1 (P11802 whole entry): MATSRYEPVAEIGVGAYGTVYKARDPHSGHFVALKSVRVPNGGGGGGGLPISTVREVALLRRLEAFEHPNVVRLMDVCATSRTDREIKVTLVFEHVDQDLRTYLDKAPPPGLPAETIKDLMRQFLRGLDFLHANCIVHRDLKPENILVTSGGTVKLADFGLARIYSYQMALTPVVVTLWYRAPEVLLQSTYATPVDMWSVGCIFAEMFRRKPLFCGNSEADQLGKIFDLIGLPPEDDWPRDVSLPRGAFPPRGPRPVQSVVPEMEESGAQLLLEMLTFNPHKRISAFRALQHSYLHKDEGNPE
Sequence of CDK4/cyclin D1 (P24385 whole entry partner): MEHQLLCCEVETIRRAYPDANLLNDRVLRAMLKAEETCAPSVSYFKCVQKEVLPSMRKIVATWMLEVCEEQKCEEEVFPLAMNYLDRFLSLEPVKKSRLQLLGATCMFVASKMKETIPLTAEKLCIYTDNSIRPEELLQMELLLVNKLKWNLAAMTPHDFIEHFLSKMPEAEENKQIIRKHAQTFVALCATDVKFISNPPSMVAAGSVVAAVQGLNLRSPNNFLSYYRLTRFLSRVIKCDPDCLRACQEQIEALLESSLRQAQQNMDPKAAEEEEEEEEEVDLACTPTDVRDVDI
Sequence of CDK9/cyclin T1 (P50750 whole entry): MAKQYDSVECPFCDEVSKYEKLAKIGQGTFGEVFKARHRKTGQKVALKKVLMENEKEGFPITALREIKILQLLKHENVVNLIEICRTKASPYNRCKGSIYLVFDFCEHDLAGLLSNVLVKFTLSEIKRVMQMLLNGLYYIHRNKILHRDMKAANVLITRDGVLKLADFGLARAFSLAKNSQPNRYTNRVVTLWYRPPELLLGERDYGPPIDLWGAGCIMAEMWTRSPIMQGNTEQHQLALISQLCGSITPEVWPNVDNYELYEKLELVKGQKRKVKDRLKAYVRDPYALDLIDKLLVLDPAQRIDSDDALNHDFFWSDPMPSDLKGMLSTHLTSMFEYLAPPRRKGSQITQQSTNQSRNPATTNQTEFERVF
Sequence of CDK9/cyclin T1 (O60563 whole entry partner): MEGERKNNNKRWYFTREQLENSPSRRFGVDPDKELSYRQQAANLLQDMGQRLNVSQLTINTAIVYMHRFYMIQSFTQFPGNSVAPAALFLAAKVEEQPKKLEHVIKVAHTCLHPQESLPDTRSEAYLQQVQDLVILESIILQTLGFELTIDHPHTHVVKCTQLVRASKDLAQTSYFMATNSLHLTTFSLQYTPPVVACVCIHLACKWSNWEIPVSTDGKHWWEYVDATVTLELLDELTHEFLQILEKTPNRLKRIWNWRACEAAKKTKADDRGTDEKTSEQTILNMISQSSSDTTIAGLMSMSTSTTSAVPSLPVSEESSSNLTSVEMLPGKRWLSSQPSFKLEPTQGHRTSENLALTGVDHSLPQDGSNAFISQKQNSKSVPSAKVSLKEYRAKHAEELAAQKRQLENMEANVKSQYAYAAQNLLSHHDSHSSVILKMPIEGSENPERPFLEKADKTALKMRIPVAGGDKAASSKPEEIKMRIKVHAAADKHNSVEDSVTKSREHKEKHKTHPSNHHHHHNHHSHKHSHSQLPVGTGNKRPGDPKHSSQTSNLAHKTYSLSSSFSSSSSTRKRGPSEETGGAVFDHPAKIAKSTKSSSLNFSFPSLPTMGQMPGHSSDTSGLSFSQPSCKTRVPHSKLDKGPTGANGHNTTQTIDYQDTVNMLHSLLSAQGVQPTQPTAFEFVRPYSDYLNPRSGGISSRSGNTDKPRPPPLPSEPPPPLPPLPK

Cc1nc(C)c(-c2ccnc(Nc3ccc(N4CCN(CCOCCO)CC4)cc3)n2)s1 [Compound 7, [4-(2,4-Dimethyl-thiazol-5-yl)-pyrimidin-2-yl]-[4-(4′-2″-ethoxylethanolpiperazino)-phenyl]-amine]
IC50 (CDK4/cyclin D1): 620 nM | IC50 (CDK7/cyclin H): 2200 nM | IC50 (Saos-2): 1600 nM | IC50 (CDK2/cyclin A): 1300 nM | IC50 (HT29): 1600 nM | IC50 (CDK2/cyclin E): 1800 nM | IC50 (CDK1/cyclin B): 4200 nM | IC50 (A549): 3900 nM

Cc1nc(C)c(-c2ccnc(Nc3ccc(N4CCN(S(C)(=O)=O)CC4)cc3)n2)s1 [Compound 10, [4-(2,4-Dimethyl-thiazol-5-yl)-pyrimidin-2-yl]-[4-(4-methanesulfonyl-piperazin-1-yl)-phenyl]-amine]
IC50 (CDK4/cyclin D1): 11000 nM | IC50 (HT29): 6400 nM | IC50 (CDK1/cyclin B): 51000 nM | IC50 (A549): 11000 nM

Cc1nc(NC(=O)[C@@H](N)CO)sc1-c1ccnc(Nc2cccc([N+](=O)[O-])c2)n1 [Compound 14, (2S)-2-Amino-3-hydroxy-N-{4-methyl-5-[2-(3-nitro-phenylamino)-pyrimidin-4-yl]-thiazol-2-yl}-propionamide]
IC50 (CDK4/cyclin D1): 2200 nM | IC50 (CDK9/cyclin T1): 340 nM | IC50 (Saos-2): 1500 nM | IC50 (HT29): 730 nM | IC50 (CDK2/cyclin E): 68 nM | IC50 (A549): 990 nM

Cc1nc(NC(=O)[C@@H](N)[C@H](C)O)sc1-c1ccnc(Nc2cccc([N+](=O)[O-])c2)n1 [Compound 17, (2S,3S)-2-Amino-3-hydroxy-N-{4-methyl-5-[2-(3-nitro-phenylamino)-pyrimidin-4-yl]-thiazol-2-yl}-butyramide]
IC50 (Saos-2): 1200 nM | IC50 (HT29): 1200 nM | IC50 (CDK2/cyclin E): 210 nM | IC50 (CDK1/cyclin B): 2000 nM | IC50 (A549): 1100 nM

Cc1nc(NC(=O)CCCN)sc1-c1ccnc(Nc2cccc([N+](=O)[O-])c2)n1 [Compound 18, 4-Amino-N-{4-methyl-5-[2-(3-nitro-phenylamino)-pyrimidin-4-yl]-thiazol-2-yl}-butyramide]
IC50 (CDK4/cyclin D1): 1100 nM | IC50 (CDK9/cyclin T1): 530 nM | IC50 (Saos-2): 1100 nM | IC50 (HT29): 2400 nM | IC50 (CDK2/cyclin E): 180 nM | IC50 (A549): 2500 nM

Cc1nc(NC(=O)CCBr)sc1-c1ccnc(Nc2ccc(F)cc2)n1 [Compound 20, 3-Bromo-N-{5-[2-(4-fluoro-phenylamino)-pyrimidin-4-yl]-4-methyl-thiazol-2-yl}-propionamide]
IC50 (CDK4/cyclin D1): 770 nM | IC50 (CDK9/cyclin T1): 37 nM | IC50 (CDK2/cyclin A): 520 nM | IC50 (HT29): 6300 nM | IC50 (CDK2/cyclin E): 76 nM | IC50 (CDK1/cyclin B): 1900 nM | IC50 (A549): 5800 nM

Cc1nc(NC(=O)CCl)sc1-c1ccnc(Nc2cccc([N+](=O)[O-])c2)n1 [Compound 24, 2-Chloro-N-{4-methyl-5-[2-(3-nitro-phenylamino)-pyrimidin-4-yl]-thiazol-2-yl}-acetamide]
IC50 (CDK4/cyclin D1): 440 nM | IC50 (CDK9/cyclin T1): 5.8 nM | IC50 (Saos-2): 170 nM | IC50 (HT29): 140 nM | IC50 (CDK2/cyclin E): 1100 nM | IC50 (A549): 140 nM

Cc1nc(NC(=O)CN2CCN(C(=O)OC(C)(C)C)CC2)sc1-c1ccnc(Nc2cccc([N+](=O)[O-])c2)n1 [Compound 28, 4-({4-Methyl-5-[2-(3-nitro-phenylamino)-pyrimidin-4-yl]-thiazol-2-ylcarbamoyl}-methyl)-piperazine-1-carboxylic acid tert-butyl ester]
IC50 (CDK4/cyclin D1): 29000 nM | IC50 (Saos-2): 15000 nM | IC50 (CDK2/cyclin A): 12000 nM | IC50 (HT29): 6740 nM | IC50 (CDK2/cyclin E): 2600 nM | IC50 (CDK1/cyclin B): 36000 nM | IC50 (A549): 9900 nM

Cc1nc(NS(C)(=O)=O)sc1-c1ccnc(Nc2ccc(F)cc2)n1 [Compound 31, N-{5-[2-(4-Fluoro-phenylamino)-pyrimidin-4-yl]-4-methyl-thiazol-2-yl}-methanesulfonamide]
IC50 (CDK4/cyclin D1): 5600 nM | IC50 (Saos-2): 810 nM | IC50 (HT29): 4100 nM | IC50 (CDK2/cyclin E): 300 nM | IC50 (A549): 2000 nM

Cc1nc(NC(=O)CCl)sc1-c1ccnc(Nc2ccc(F)cc2)n1 [Compound 33, 2-Chloro-N-{5-[2-(4-fluoro-phenylamino)-pyrimidin-4-yl]-4-methyl-thiazol-2-yl}-acetamide]
IC50 (Saos-2): 300 nM | IC50 (HT29): 110 nM | IC50 (A549): 330 nM

Cc1nc(NC(=O)CCN2CCOCC2)sc1-c1ccnc(Nc2ccc(Cl)cc2)n1 [Compound 35, N-{5-[2-(4-Chloro-phenylamino)-pyrimidin-4-yl]-4-methyl-thiazol-2-yl}-3-morpholin-4-yl-propionamide]
IC50 (CDK4/cyclin D1): 4700 nM | IC50 (CDK9/cyclin T1): 1800 nM | IC50 (Saos-2): 26000 nM | IC50 (CDK2/cyclin A): 3000 nM | IC50 (HT29): 7700 nM | IC50 (CDK2/cyclin E): 800 nM | IC50 (CDK1/cyclin B): 15000 nM | IC50 (A549): 15000 nM

CC(=O)N(C)c1ccc(Nc2nccc(-c3sc(C)nc3C)n2)cc1 [Compound 48, N-{4-[4-(2,4-Dimethyl-thiazol-5-yl)-pyrimidin-2-ylamino]-phenyl}-N-methyl-acetamide]
IC50 (CDK4/cyclin D1): 2600 nM | IC50 (CDK7/cyclin H): 3500 nM | IC50 (Saos-2): 3800 nM | IC50 (CDK2/cyclin A): 1700 nM | IC50 (HT29): 2600 nM | IC50 (CDK2/cyclin E): 2100 nM | IC50 (CDK1/cyclin B): 12000 nM | IC50 (A549): 3000 nM

Cc1nc(C)c(-c2ccnc(Nc3ccc(NC(=O)CN4CCOCC4)cc3)n2)s1 [Compound 51, N-{4-[4-(2,4-Dimethyl-thiazol-5-yl)-pyrimidin-2-ylamino]-phenyl}-2-morpholin-4-yl-acetamide]
IC50 (CDK4/cyclin D1): 400 nM | IC50 (CDK7/cyclin H): 9600 nM | IC50 (Saos-2): 1100 nM | IC50 (CDK2/cyclin A): 2900 nM | IC50 (HT29): 1400 nM | IC50 (CDK2/cyclin E): 1700 nM | IC50 (CDK1/cyclin B): 11000 nM | IC50 (A549): 1900 nM

Cc1nc(C)c(-c2ccnc(Nc3ccc(NC(=O)Cn4cncn4)cc3)n2)s1 [Compound 52, N-{4-[4-(2,4-Dimethyl-thiazol-5-yl)-pyrimidin-2-ylamino]-phenyl}-2-[1,2,4]triazol-1-yl-acetamide]
IC50 (CDK4/cyclin D1): 180 nM | IC50 (CDK7/cyclin H): 2000 nM | IC50 (Saos-2): 1100 nM | IC50 (CDK2/cyclin A): 1300 nM | IC50 (HT29): 1600 nM | IC50 (CDK2/cyclin E): 440 nM | IC50 (CDK1/cyclin B): 2500 nM | IC50 (A549): 1600 nM

CNc1nc(C)c(-c2ccnc(Nc3ccc(N4CCNCC4)cc3)n2)s1 [Compound 62, [4-(4-Methyl-2-methylamino-thiazol-5-yl)-pyrimidin-2-yl]-(4-piperazin-l-yl-phenyl)-amine]
IC50 (CDK4/cyclin D1): 7 nM | IC50 (Saos-2): 260 nM | IC50 (HT29): 180 nM | IC50 (CDK1/cyclin B): 980 nM | IC50 (A549): 190 nM

Cc1nc(C)c(-c2ccnc(Nc3ccc(S(C)(=O)=O)cc3)n2)s1 [Compound 85, [4-(2,4-Dimethyl-thiazol-5-yl)-pyrimidin-2-yl]-(4-methanesulfonyl-phenyl)-amine]
IC50 (CDK4/cyclin D1): 3800 nM | IC50 (CDK7/cyclin H): 11000 nM | IC50 (CDK2/cyclin A): 1 nM | IC50 (CDK2/cyclin E): 28 nM | IC50 (CDK1/cyclin B): 48 nM

CNc1nc(C)c(-c2ccnc(Nc3cccc(CO)c3)n2)s1 [Compound 91, {3-[4-(4-Methyl-2-methylamino-thiazol-5-yl)-pyrimidin-2-ylamino]-phenyl}-methanol]
IC50 (CDK4/cyclin D1): 630 nM | IC50 (CDK2/cyclin A): 100 nM | IC50 (CDK2/cyclin E): 110 nM | IC50 (CDK1/cyclin B): 120 nM
